“And” between values parts separate entries of the source, which are not always exact repeats. Equal entries are not always repeated.
Biological target: Polyketide synthase Pks13 (Mycobacterium tuberculosis (strain ATCC 25618 / H37Rv), UniProt I6X8D2)
Test: Mycobacterium tuberculosis Polyketide synthase 13 Thioesterase (PKS13)
Format: functional

Polyketide synthase Pks13, sequence (I6X8D2 whole entry): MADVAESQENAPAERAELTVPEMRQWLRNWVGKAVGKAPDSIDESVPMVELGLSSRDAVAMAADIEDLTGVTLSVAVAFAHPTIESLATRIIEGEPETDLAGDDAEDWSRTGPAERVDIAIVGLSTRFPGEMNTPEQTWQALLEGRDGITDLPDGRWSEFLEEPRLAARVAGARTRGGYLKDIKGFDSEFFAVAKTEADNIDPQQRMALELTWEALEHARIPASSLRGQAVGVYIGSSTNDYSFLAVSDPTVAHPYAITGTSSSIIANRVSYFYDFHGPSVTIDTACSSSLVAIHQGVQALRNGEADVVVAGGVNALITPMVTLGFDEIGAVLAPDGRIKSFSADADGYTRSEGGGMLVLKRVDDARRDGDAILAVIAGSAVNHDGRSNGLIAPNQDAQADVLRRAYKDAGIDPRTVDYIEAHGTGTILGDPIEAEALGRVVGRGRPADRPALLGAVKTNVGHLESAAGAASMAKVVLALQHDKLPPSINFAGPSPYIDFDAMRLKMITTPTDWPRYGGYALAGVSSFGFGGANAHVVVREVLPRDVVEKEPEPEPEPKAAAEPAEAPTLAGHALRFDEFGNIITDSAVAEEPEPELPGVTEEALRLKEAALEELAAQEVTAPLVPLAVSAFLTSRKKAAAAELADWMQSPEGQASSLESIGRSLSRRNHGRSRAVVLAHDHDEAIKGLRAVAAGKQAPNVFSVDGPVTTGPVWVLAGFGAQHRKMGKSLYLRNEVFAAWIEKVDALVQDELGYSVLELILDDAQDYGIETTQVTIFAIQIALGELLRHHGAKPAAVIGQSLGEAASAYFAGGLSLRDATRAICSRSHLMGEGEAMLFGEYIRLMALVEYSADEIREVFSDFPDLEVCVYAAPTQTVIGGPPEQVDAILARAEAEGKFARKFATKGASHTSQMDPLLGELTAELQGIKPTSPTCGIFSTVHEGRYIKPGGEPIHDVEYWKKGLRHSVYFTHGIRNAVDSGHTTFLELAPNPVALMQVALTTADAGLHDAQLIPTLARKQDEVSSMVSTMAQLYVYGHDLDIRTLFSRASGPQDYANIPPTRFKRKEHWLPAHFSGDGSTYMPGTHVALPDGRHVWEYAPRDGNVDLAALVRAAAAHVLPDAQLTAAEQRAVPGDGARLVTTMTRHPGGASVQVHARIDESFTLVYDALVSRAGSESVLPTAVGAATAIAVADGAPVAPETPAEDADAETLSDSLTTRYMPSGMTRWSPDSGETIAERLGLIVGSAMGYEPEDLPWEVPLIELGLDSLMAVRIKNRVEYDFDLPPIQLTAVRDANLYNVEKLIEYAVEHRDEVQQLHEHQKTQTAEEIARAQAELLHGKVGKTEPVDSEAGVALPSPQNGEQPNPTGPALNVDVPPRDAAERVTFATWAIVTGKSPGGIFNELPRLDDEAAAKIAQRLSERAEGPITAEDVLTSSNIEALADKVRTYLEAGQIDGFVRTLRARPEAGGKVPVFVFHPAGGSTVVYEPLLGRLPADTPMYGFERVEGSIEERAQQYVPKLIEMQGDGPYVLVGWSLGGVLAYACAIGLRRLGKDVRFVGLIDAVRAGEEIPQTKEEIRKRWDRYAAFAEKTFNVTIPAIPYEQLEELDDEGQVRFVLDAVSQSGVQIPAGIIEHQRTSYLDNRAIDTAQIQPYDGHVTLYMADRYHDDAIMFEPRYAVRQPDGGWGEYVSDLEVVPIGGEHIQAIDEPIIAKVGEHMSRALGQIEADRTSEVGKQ

Compound | IC50
CC1CCc2nc(O)c(C(=O)NCCCN3CCN(C)CC3)cc2C1 (stereo unspecified) | 31.6 µM and 37.1 µM
NC(=O)CCSc1ccccc1NCc1ccc(Cl)s1 | 6.92 µM and 6.81 µM
N#Cc1cc(C#N)c(SCC(=O)Nc2ccc(F)cc2)nc1N | 19.3 µM and 21.8 µM
O=C1CC(c2ccc(F)c(F)c2)c2snc(C(=O)O)c2N1 (stereo unspecified) | > 100 µM
CCN(CC)C(=O)c1nnc2ccc(N3CCOCC3)cc2n1 | 6.1 µM and 15.9 µM
O=C(O)[C@]12CCCN(Cc3ccccn3)[C@@H]1CCN(c1cnccn1)C2 | > 100 µM
CCn1c(SCC(=O)N2CCCC2)nc2cc(C)[nH]c2c1=O | > 100 µM
O=C1CCCN1Cc1ncn2c1CN(C(=O)NC1CCCC1)CCC2 | > 100 µM
CNC(=O)CNC1CC2(CCN(c3ncccn3)CC2)c2ccccc21 (stereo unspecified) | > 100 µM
Cc1cc(S(=O)(=O)Nc2cccc(OC(F)F)c2)sc1C(=O)O | 16.4 µM and 3.37 µM
CN1CC2(CCCN(Cc3nnc(-c4ccco4)o3)CC2)OC1=O (stereo unspecified) | > 100 µM
Cc1ccc(CNC(=O)C2CCCCN2C(=O)OC(C)(C)C)cn1 (stereo unspecified) | > 100 µM
CN1CCc2ccc(NCc3cccs3)cc2C1=O | > 100 µM
O=C(COCc1ccccc1Cl)N1CCN(c2ccc(Br)cn2)CC1 | 26.1 µM and 19.2 µM
O=C1CC(NCc2cnc(N3CCCC3)nc2)CN1c1ccccc1 (stereo unspecified) | > 100 µM
Cc1cccc(OC2CCN(c3nccnc3C#N)CC2)n1 | 42.2 µM and 46 µM
CC(=O)c1ccc(N2CCCC(CO)(CCc3ccccc3)C2)nc1 (stereo unspecified) | 72.2 µM and 69.8 µM
c1ccc(CCCN2CC[C@H](c3nnc(-c4ccccc4)o3)C2)cc1 | > 100 µM
Cn1ncc2c1CN(Cc1cccnc1)CC2COCC1CC1 (stereo unspecified) | > 100 µM
Cn1c(NCC(=O)N2CCCC2)c(C#N)c(=O)n(C)c1=O | > 100 µM
CCC(CNC(=O)COC)Oc1cccc(F)c1 (stereo unspecified) | > 100 µM
CCNc1ncc(C(=O)N2CCc3c(nc(C)nc3N(C)C)C2)cn1 | > 100 µM
Cn1nc(C2CCCN2)c2c(C(=O)NCC(F)(F)F)cc(C3CC3)nc21 (stereo unspecified) | > 100 µM
O=C(O)CSc1nccc(-c2ccc3c(c2)OCO3)n1 | 16.4 µM and 18.6 µM
COc1ccccc1N1CCC(CNS(=O)(=O)c2cccs2)C1 (stereo unspecified) | 10.3 µM and 4.51 µM

Compound | IC50
Cc1cn2c(=O)c(-c3ccnc(N4CCC[C@@H]4CO)n3)cnc2s1 | > 100 µM
O=c1[nH]c2cc3c(cc2cc1CN1CCCC1c1ccccn1)OCO3 (stereo unspecified) | > 100 µM and 70.3 µM
NC(=O)CSc1nccc(-c2ccc3c(c2)OCO3)n1 | 20 µM and 18.9 µM
Cc1csc2ncc(-c3ccnc(N4CCCC4)n3)c(=O)n12 | > 100 µM
CC1(C(=O)NCc2cccnc2Oc2ccc(F)c(F)c2)CCCNC1 (stereo unspecified) | > 100 µM
Cc1ncc(CNCC(C)O)c2cc(C(=O)c3ccc(Br)cc3)oc12 (stereo unspecified) | > 100 µM
O=C(c1ccco1)N1CCO[C@@H]2CN(c3ccccn3)CC[C@@H]2C1 | > 100 µM
COc1cccc(CN2CCC3(CCN(c4ncc(C)cn4)CC3)C2)c1 | > 100 µM
Cc1cc(-c2cnn(CCNC(=O)c3snnc3C)c2C2CC2)on1 | > 100 µM
Cc1cnn(CC2CCCN2Cc2cc(=O)n3cc(C)ccc3n2)c1 (stereo unspecified) | > 100 µM and 95.9 µM
Cc1ccccc1S(=O)(=O)N[C@@H]1CC[C@@H](N2CCNC(=O)C2)[C@@H]1O | > 100 µM
COc1ccc(C2CCCN2C(=O)c2cc3c([nH]c2=O)CCC3)cc1 (stereo unspecified) | 31.9 µM and 34.5 µM
CCC(C)Nc1ccc(-c2nc(-c3cccc(OC)c3OC)no2)cn1 (stereo unspecified) | 28.7 µM and 14 µM
COc1cccc(N2CCN(C(=O)C(O)c3ccccc3Cl)CC2=O)c1 (stereo unspecified) | > 100 µM
COc1ccc(NC(C)C(=O)N2CCCC2)cn1 (stereo unspecified) | > 100 µM
Cc1ccnc(OC[C@]23COC[C@H]2CN(C(=O)c2ncccn2)C3)n1 | > 100 µM
CCOCCN1Cc2ncn(C)c2C(COCC2CCOCC2)C1 (stereo unspecified) | > 100 µM
Cc1cnn(CC(C)NCC(=O)NCCOc2ccccc2)c1 (stereo unspecified) | > 100 µM
COC(=O)c1sc2cccc(F)c2c1CNC(=O)C1CCOC1 (stereo unspecified) | > 100 µM
Cn1ccc(C(=O)NC2CCN(c3ncccn3)CC2)cc1=O | > 100 µM
Cn1ccc(C(=O)NCc2cccc(CN3CCCC3)c2)cc1=O | > 100 µM
CCOCC1CCCN(C(=O)NCc2ccc(-c3ccn[nH]3)cc2)C1 (stereo unspecified) | > 100 µM
O=C(c1cnc2c(cnn2C2CCCC2)c1)N1CCN(CCO)CC1 | > 100 µM
Cc1ncc(CN)c(-c2cn(C)c3ccccc23)n1 | 89.1 µM and > 100 µM
O=C(O)c1csc(S(=O)(=O)Nc2cccc(OCC(F)(F)F)c2)c1 | 36 µM and 20.4 µM

Compound | IC50
O=C(c1cnccn1)N1C[C@@H]2CC[C@H](C1)N(S(=O)(=O)c1cccnc1)C2 | > 100 µM
CCC(CC)C(=O)n1ccn(S(=O)(=O)c2ccc(C)cc2)c1=O | 20 µM and 19.7 µM
CCOCCC(=O)N1CCc2cccc(S(=O)(=O)N3CCOCC3)c2C1 | > 100 µM and 20.4 µM
Cc1ccc(C)c(OC2CCN(C(=O)CNc3ccccc3Cl)CC2)c1 | 10.7 µM and 12.7 µM
COc1ccc2[nH]cc(-c3ccnc(N4CCC(C)CC4)n3)c2c1 | 33.7 µM and 30 µM
Cn1ccnc1C(=O)N1C[C@@H]2CCN(c3cnccn3)C[C@@H]2C1 | > 100 µM
N#Cc1cccc(N2CCCC(CO)(CCOc3ccccc3)C2)n1 (stereo unspecified) | 34.6 µM and 6.67 µM
Cc1ccc2cc(CNCCCN3CCOCC3)c(=O)[nH]c2c1C | > 100 µM
O=C(OCC1CCN(c2ccccc2)C1)c1cscn1 (stereo unspecified) | 29.9 µM and 4.14 µM
O=C(Nc1cnc(N2CCOCC2)nc1)c1ccc(C(F)(F)F)cc1 | 22.3 µM and 20.4 µM
COc1cccc(C(=O)N2CCc3c(nc(N)[nH]c3=O)C2)c1C | > 100 µM
Cc1noc([C@@H]2C[C@H]3OCC[C@H]3N(S(=O)(=O)c3cccnc3)C2)n1 | > 100 µM
CC1=N[C@@]2(CC[C@@H]3CN(S(C)(=O)=O)C[C@@H]32)C(=O)N1CC(C)C | > 100 µM
Cc1ccc(-c2cc(C(=O)NCCCc3csc(N)n3)[nH]n2)s1 | 9.27 µM and 17 µM
Cc1ccc(C(=O)N2CCC3(CC2)c2ccccc2[C@@H](N)[C@@H]3O)c(=O)[nH]1 | > 100 µM
CCOCC1CN(C(=O)c2cccs2)Cc2cnn(CC3CC3)c21 (stereo unspecified) | > 100 µM
N#Cc1cccnc1N1CCCC(CO)(Cc2cccc(Cl)c2)C1 (stereo unspecified) | 26.7 µM and 23.5 µM
Cc1ccc(CN2CCCC(c3nn(C)c4nccnc34)C2)s1 (stereo unspecified) | > 100 µM
COc1ccc(-c2ccnc3nc(N4CCCCC4)[nH]c(=O)c23)cc1 | 19.6 µM and 3.94 µM
O=C(c1ccc(-n2cc(Br)cn2)cc1)N1CCN(c2cnccn2)CC1 | 2.63 µM and 3.37 µM
O=C(C1CC1)N1CCc2ccccc2C12CCNCC2 | > 100 µM
COc1cccc(-c2noc(-c3ccc(NCC(C)C)nc3)n2)c1OC | 15.7 µM and 26.8 µM
CCc1ccc(C(O)CN2CCN(c3cccc(OC)c3)CC2)cc1 (stereo unspecified) | 23.2 µM and 27.3 µM
CCC1(C)Cc2ccccc2-c2nc(NCCO)nc(O)c21 (stereo unspecified) | 31.8 µM and 28.8 µM
COCc1nc(C(=O)OCC2CCN(c3ccccc3)C2)cs1 (stereo unspecified) | > 100 µM and 16 µM

Compound | IC50
CCOC1CC2(CCN(C(=O)Cc3ccccn3)CC2)C1 | > 100 µM
CN(C)C[C@@H]1[C@H]2CN(C(=O)c3cc(=O)[nH]c4ccc(F)cc34)C[C@@H]12 | 98.5 µM and > 100 µM
COc1ccc2c(C(=O)N(C)C)cc(-c3cnc(N)nc3)nc2c1 | 30.4 µM and 38.7 µM
COCCN1CCCC2(CCN(c3nccnc3N(C)C)C2)C1=O (stereo unspecified) | > 100 µM
NC(=O)c1cc(C2CC2)nc2ccc(F)cc12 | > 100 µM
CC(C)(C)OCCN1CCCC1c1nc(Cc2ccc(F)cc2)no1 (stereo unspecified) | > 100 µM
O=C(O)C1c2nc[nH]c2CCN1Cc1ccccc1-c1ccccc1 (stereo unspecified) | > 100 µM
Cc1nn(C)cc1-c1ccnc(N(C)Cc2ccoc2)n1 | > 100 µM
O=c1[nH]c(NC2CCCC2)nc2nccc(-c3cccs3)c12 | 8.33 µM and 21.7 µM
O=C(c1ccc(-n2ccnc2)cc1)N1CCN(c2cnccn2)CC1 | > 100 µM
Cc1cc(C)n(-c2nc(C(=O)NCCN3CCC(C)CC3)cs2)n1 | > 100 µM
COc1ccc(-c2cc(C[C@@H]3C[C@H](N(C)C)C3(C)C)no2)cc1 | 41.5 µM and > 100 µM
Cc1cc2c(N)nc(=O)n(CC(=O)Nc3ccccc3)c2s1 | > 100 µM
Cc1cc(C2CCCCN2C(=O)c2ccsc2)nc2nccn12 (stereo unspecified) | > 100 µM
CCCNC(=O)CCNc1cncc(-n2nc(C)cc2C)n1 | 28 µM and 22 µM
Cc1cc(C)n(-c2cncc(NCCNS(C)(=O)=O)n2)n1 | 20.9 µM and 8.18 µM
CCc1nnc(Nc2cccc(C3CCN(C(C)=O)CC3)n2)s1 | > 100 µM
CCc1cccc(C)c1NC(=O)C1CC(=O)N(Cc2ccccn2)C1 (stereo unspecified) | > 100 µM
Cc1cc(NCc2cccc(C#N)c2)ccc1Br | 20.6 µM and 18 µM
CN(C)C(=O)c1cn[nH]c1C1(C)CCN(c2ncccn2)CC1 | > 100 µM
CN(C)c1ncnc2c1CCN(C(=O)c1cccnc1)CC2 | > 100 µM
Cc1cc(C)c2cc(CNCc3cccnc3)c3nn(C)c(=O)n3c2c1 | 59.1 µM
CCn1cc(-c2cc(C(F)F)n3nc(CC(=O)O)nc3n2)cn1 | 15.7 µM and 16.4 µM
CC(C)OCc1ncn2c1CN(Cc1nccs1)CCC2 | > 100 µM
c1cnc(N2CCC3(CCCN(CC4CCCCC4)C3)C2)cn1 (stereo unspecified) | > 100 µM

Compound | IC50
CC(NC(=O)CN(C)S(C)(=O)=O)c1nnc2n1CCCCC2 (stereo unspecified) | > 100 µM
CC(=O)N1CCC(NC(=O)c2cc(Cl)ccc2O)CC1 | > 100 µM and 80.2 µM
Cc1ccc(NC(=O)c2nc3c(s2)CCCN3C(=O)C2CC2)cn1 | > 100 µM
CCC(=O)NCC(=O)NCC(C)(C)c1cccc(Br)c1 | > 100 µM
CC(NC(=O)NCC(C)(C)C(N)=O)c1nc(-c2ccccc2)cs1 (stereo unspecified) | > 100 µM
Nc1cc(C(=O)NCC2CCN(Cc3ccncc3F)C2)ccn1 (stereo unspecified) | > 100 µM
CN(C)c1nccc(-c2c[nH][nH]c2=O)n1 | > 100 µM
C[C@H](NC(=O)c1cccc(CCC(C)(C)O)c1)C(N)=O | > 100 µM
O=C(NCc1ccc2c(c1)OCCO2)N1CCC(CO)CC1 | > 100 µM
COc1cc2nc(NCc3cc(C)on3)nc(N)c2cc1OC | > 100 µM and 89.5 µM
CS(=O)(=O)N1CCCC1c1cccc(Cc2ccccc2F)n1 (stereo unspecified) | > 100 µM
COCCc1noc(-c2cn(CCc3ccccc3)nn2)n1 | 20.8 µM and 8.65 µM
CNc1cncc(C2CCCN2C(=O)Cn2c(=O)oc3ccccc32)n1 (stereo unspecified) | 30.2 µM and > 57.5 µM
OCC1(CCOc2ccccc2)CCCN(c2ccc(Cl)cn2)C1 (stereo unspecified) | 29 µM and 32.3 µM
CCOc1ccc2nc(CN3CCOC(CN)C3)ccc2c1 (stereo unspecified) | > 100 µM
Cc1c(C(=O)N2CCOCC2)nnn1-c1ccc2ncccc2c1 | > 100 µM
COC(=O)c1ccc(NC2CCN(CC(F)(F)F)C2=O)cc1C (stereo unspecified) | > 100 µM
CCN1CC(C(=O)N2CCN(c3nsc4ccccc34)CC2)CCC1=O (stereo unspecified) | 90.7 µM and 73 µM
CCc1ccc(S(=O)(=O)NCC2CCN(c3cnccn3)CC2)s1 | 18.4 µM and 29.5 µM
CC(=O)N1N=C(c2ccco2)OC1C(=O)NCC(C)C (stereo unspecified) | > 100 µM
CCOCCN1CCN([C@@H]2c3ccccc3C3(CCNCC3)[C@H]2O)CC1 | > 100 µM
